Data taken from ChEMBL document CHEMBL1201862, “PubChem BioAssay data set” (2004).
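Cells were grown in 96-well plates and exposed to each compound for 48 hours at five concentrations; endpoints were interpolated linearly between bracketing concentrations, or set to the highest concentration if not reached. At the GI50, growth is halved.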 Calls of active or inactive are those of the source. No stated cut-off is given here; in the data, active = GI50 up to about 1.1 µM and inactive = higher.

Key:
Assay in all cases: DTP human tumour cell line panel, 48 h
786-0 = test system: 786-0
A498 = test system: A498
A549 = test system: A549
ACHN = test system: ACHN
BT-549 = test system: BT-549
CAKI-1 = test system: CAKI-1
CCRF-CEM = test system: CCRF-CEM
COLO 205 = test system: COLO 205
DU-145 = test system: DU-145
EKVX = test system: EKVX
HCC 2998 = test system: HCC 2998
HCT-116 = test system: HCT-116
HCT-15 = test system: HCT-15
HOP-62 = test system: HOP-62
HOP-92 = test system: HOP-92
HT-29 = test system: HT-29
Hs-578T = test system: Hs-578T
IGROV-1 = test system: IGROV-1
K562 = test system: K562
KM12 = test system: KM12
LOX IMVI = test system: LOX IMVI
M14 = test system: M14
MCF7 = test system: MCF7
MDA-MB-231 = test system: MDA-MB-231
MDA-MB-435 = test system: MDA-MB-435
MDA-N = test system: MDA-N
MOLT-4 = test system: MOLT-4
Malme-3M = test system: Malme-3M
NCI-H226 = test system: NCI-H226
NCI-H23 = test system: NCI-H23
NCI-H460 = test system: NCI-H460
NCI-H522 = test system: NCI-H522
NCI/ADR-RES = test system: NCI/ADR-RES
OVCAR-3 = test system: OVCAR-3
OVCAR-4 = test system: OVCAR-4
OVCAR-5 = test system: OVCAR-5
OVCAR-8 = test system: OVCAR-8
PC-3 = test system: PC-3
RPMI-8226 = test system: RPMI-8226
RXF 393 = test system: RXF 393
SF-268 = test system: SF-268
SF-295 = test system: SF-295
SF-539 = test system: SF-539
SK-MEL-2 = test system: SK-MEL-2
SK-MEL-5 = test system: SK-MEL-5
SK-OV-3 = test system: SK-OV-3
SN12C = test system: SN12C
SNB-19 = test system: SNB-19
SNB-75 = test system: SNB-75
SW-620 = test system: SW-620
T47D = test system: T47D
TK-10 = test system: TK-10
U-251 = test system: U-251
UACC-257 = test system: UACC-257
UACC-62 = test system: UACC-62
UO-31 = test system: UO-31
HL-60 = test system: HL-60
SR = test system: SR
SK-MEL-28 = test system: SK-MEL-28

## O=c1[nH]c(NCc2cccnc2)nc2[nH]cnc12
786-0
  GI50: > 100 µM (inactive)
A498
  GI50: > 100 µM (inactive)
A549
  GI50: > 100 µM (inactive)
ACHN
  GI50: > 100 µM (inactive)
BT-549
  GI50: > 100 µM (inactive)
CAKI-1
  GI50: > 100 µM (inactive)
CCRF-CEM
  GI50: > 100 µM (inactive)
COLO 205
  GI50: > 100 µM (inactive)
DU-145
  GI50: > 100 µM (inactive)
EKVX
  GI50: > 100 µM (inactive)
HCC 2998
  GI50: > 100 µM (inactive)
HCT-116
  GI50: > 100 µM (inactive)
HCT-15
  GI50: > 100 µM
HOP-62
  GI50: > 100 µM (inactive)
HOP-92
  GI50: > 100 µM (inactive)
HT-29
  GI50: > 100 µM (inactive)
Hs-578T
  GI50: > 100 µM (inactive)
IGROV-1
  GI50: > 100 µM (inactive)
K562
  GI50: > 100 µM (inactive)
KM12
  GI50: > 100 µM (inactive)
LOX IMVI
  GI50: > 100 µM (inactive)
M14
  GI50: > 100 µM (inactive)
MCF7
  GI50: > 100 µM (inactive)
MDA-MB-231
  GI50: > 100 µM (inactive)
MDA-MB-435
  GI50: > 100 µM (inactive)
MDA-N
  GI50: > 100 µM (inactive)
MOLT-4
  GI50: > 100 µM (inactive)
Malme-3M
  GI50: > 100 µM (inactive)
NCI-H226
  GI50: > 100 µM (inactive)
NCI-H23
  GI50: > 100 µM (inactive)
NCI-H460
  GI50: > 100 µM (inactive)
NCI-H522
  GI50: 41.4 µM (inactive)
NCI/ADR-RES
  GI50: > 100 µM (inactive)
OVCAR-3
  GI50: > 100 µM (inactive)
OVCAR-4
  GI50: > 100 µM (inactive)
OVCAR-5
  GI50: > 100 µM (inactive)
OVCAR-8
  GI50: > 100 µM (inactive)
PC-3
  GI50: > 100 µM (inactive)
RPMI-8226
  GI50: > 100 µM (inactive)
RXF 393
  GI50: > 100 µM (inactive)
SF-268
  GI50: > 100 µM (inactive)
SF-295
  GI50: > 100 µM (inactive)
SF-539
  GI50: > 100 µM (inactive)
SK-MEL-2
  GI50: > 100 µM (inactive)
SK-MEL-5
  GI50: > 100 µM (inactive)
SK-OV-3
  GI50: > 100 µM (inactive)
SN12C
  GI50: > 100 µM (inactive)
SNB-19
  GI50: > 100 µM (inactive)
SNB-75
  GI50: > 100 µM (inactive)
SW-620
  GI50: > 100 µM (inactive)
T47D
  GI50: > 100 µM (inactive)
TK-10
  GI50: > 100 µM (inactive)
U-251
  GI50: > 100 µM (inactive)
UACC-257
  GI50: > 100 µM (inactive)
UACC-62
  GI50: > 100 µM (inactive)
UO-31
  GI50: > 100 µM (inactive)

## Cc1c(-c2ccccc2)[nH]n(C2=NCCN2)c1=O
786-0
  GI50: > 100 µM (inactive)
A498
  GI50: > 100 µM (inactive)
A549
  GI50: > 100 µM (inactive)
ACHN
  GI50: > 100 µM (inactive)
BT-549
  GI50: > 100 µM (inactive)
CAKI-1
  GI50: > 100 µM (inactive)
CCRF-CEM
  GI50: > 100 µM (inactive)
COLO 205
  GI50: > 100 µM (inactive)
EKVX
  GI50: > 100 µM (inactive)
HCT-116
  GI50: > 100 µM (inactive)
HCT-15
  GI50: > 100 µM
HL-60
  GI50: 88.5 µM (inactive)
HOP-62
  GI50: > 100 µM (inactive)
HOP-92
  GI50: > 100 µM (inactive)
HT-29
  GI50: 46.3 µM (inactive)
Hs-578T
  GI50: > 100 µM (inactive)
IGROV-1
  GI50: 67.8 µM (inactive)
K562
  GI50: > 100 µM (inactive)
KM12
  GI50: > 100 µM (inactive)
LOX IMVI
  GI50: > 100 µM (inactive)
M14
  GI50: > 100 µM (inactive)
MCF7
  GI50: > 100 µM (inactive)
MDA-MB-231
  GI50: > 100 µM (inactive)
MDA-MB-435
  GI50: > 100 µM (inactive)
MDA-N
  GI50: > 100 µM (inactive)
MOLT-4
  GI50: > 100 µM (inactive)
Malme-3M
  GI50: 41 µM (inactive)
NCI-H226
  GI50: 52.8 µM (inactive)
NCI-H23
  GI50: > 100 µM (inactive)
NCI-H460
  GI50: 78.7 µM (inactive)
NCI-H522
  GI50: > 100 µM (inactive)
NCI/ADR-RES
  GI50: > 100 µM (inactive)
OVCAR-3
  GI50: > 100 µM (inactive)
OVCAR-4
  GI50: > 100 µM (inactive)
OVCAR-5
  GI50: > 100 µM (inactive)
OVCAR-8
  GI50: > 100 µM (inactive)
PC-3
  GI50: > 100 µM (inactive)
RPMI-8226
  GI50: > 100 µM (inactive)
RXF 393
  GI50: > 100 µM (inactive)
SF-268
  GI50: > 100 µM (inactive)
SF-295
  GI50: > 100 µM (inactive)
SF-539
  GI50: > 100 µM (inactive)
SK-MEL-2
  GI50: > 100 µM (inactive)
SK-MEL-5
  GI50: > 100 µM (inactive)
SK-OV-3
  GI50: > 100 µM (inactive)
SNB-19
  GI50: > 100 µM (inactive)
SNB-75
  GI50: 30.4 µM (inactive)
SR
  GI50: > 100 µM (inactive)
SW-620
  GI50: > 100 µM (inactive)
T47D
  GI50: > 100 µM (inactive)
TK-10
  GI50: > 100 µM (inactive)
U-251
  GI50: > 100 µM (inactive)
UACC-257
  GI50: > 100 µM (inactive)
UACC-62
  GI50: > 100 µM (inactive)
UO-31
  GI50: 85.1 µM (inactive)

## O=C1c2cccnc2-c2nccc3c2c1nc1ccccc13 [ASCIDIDEMIN]
786-0
  GI50: 0.752 µM (active)
A498
  GI50: 0.27 µM (active)
A549
  GI50: 0.255 µM (active)
ACHN
  GI50: 0.0371 µM (active)
BT-549
  GI50: 0.169 µM (active)
CAKI-1
  GI50: 0.215 µM (active)
CCRF-CEM
  GI50: 0.501 µM (active)
COLO 205
  GI50: 1.99 µM (inactive)
DU-145
  GI50: 0.0621 µM (active)
EKVX
  GI50: 0.912 µM (active)
HCT-116
  GI50: 0.0352 µM (active)
HCT-15
  GI50: 0.037 µM
HL-60
  GI50: 0.1 µM (active)
HOP-62
  GI50: 0.097 µM (active)
HOP-92
  GI50: 0.49 µM (active)
HT-29
  GI50: 1.19 µM (inactive)
Hs-578T
  GI50: 0.637 µM (active)
IGROV-1
  GI50: 0.31 µM (active)
K562
  GI50: 0.166 µM (active)
KM12
  GI50: 0.183 µM (active)
LOX IMVI
  GI50: 0.0512 µM (active)
M14
  GI50: 0.0466 µM (active)
MCF7
  GI50: 0.0708 µM (active)
MDA-MB-231
  GI50: 0.188 µM (active)
MDA-MB-435
  GI50: 0.19 µM (active)
MDA-N
  GI50: 0.157 µM (active)
MOLT-4
  GI50: 0.692 µM (active)
Malme-3M
  GI50: 0.231 µM (active)
NCI-H226
  GI50: 0.21 µM (active)
NCI-H23
  GI50: 0.172 µM (active)
NCI-H460
  GI50: 0.0879 µM (active)
NCI-H522
  GI50: 0.0975 µM (active)
NCI/ADR-RES
  GI50: 0.0551 µM (active)
OVCAR-3
  GI50: 0.0318 µM (active)
OVCAR-4
  GI50: 1.03 µM (active)
OVCAR-5
  GI50: 0.475 µM (active)
OVCAR-8
  GI50: 0.0505 µM (active)
PC-3
  GI50: 0.188 µM (active)
RPMI-8226
  GI50: 0.264 µM (active)
RXF 393
  GI50: 0.14 µM (active)
SF-268
  GI50: 0.109 µM (active)
SF-295
  GI50: 0.0798 µM (active)
SF-539
  GI50: 0.189 µM (active)
SK-MEL-28
  GI50: 0.321 µM (active)
SK-MEL-2
  GI50: 0.184 µM (active)
SK-MEL-5
  GI50: 0.0583 µM (active)
SK-OV-3
  GI50: 0.272 µM (active)
SN12C
  GI50: 0.186 µM (active)
SNB-19
  GI50: 0.281 µM (active)
SNB-75
  GI50: 0.389 µM (active)
SW-620
  GI50: 0.0705 µM (active)
T47D
  GI50: 0.29 µM (active)
TK-10
  GI50: 1.27 µM (inactive)
U-251
  GI50: 0.0845 µM (active)
UACC-257
  GI50: 0.321 µM (active)
UACC-62
  GI50: 0.224 µM (active)
UO-31
  GI50: 0.143 µM (active)
